Data: patent US8278309B2, “Synthetic mimetics of host defense and uses thereof” (priority 2008, dated 2012)
“Also recorded” adds a separate entry of the source. Where a name gives a salt, the structure may show the parent alone. Read-outs that look alike come from different tables or passages of the source.

Legend:
[1] = system: S. aureus and coagulase-negative staphylococci; experiment: MICs with Staphylococcus species with defined resistance phenotypes; type: cell-based; conditions: for MIC range: in µg/mL
Protocol: Evaluation of the susceptibility profiles of Compound A against selected isolates was carried out in vitro by broth microdilution methodology using Mueller-Hinton broth medium according to CLSI document M7-A7. CLSI interpretive breakpoints were applied where applicable as directed by CLSI document M100-S17.

[2] = Hemolysis assay using human erythrocytes; type: cell-based; conditions: human, pH 7.4
Protocol: (§3) Pooled whole human blood was centrifuged to separate the red blood cells (RBC). The isolated RBCs were rinsed and diluted in Tris-buffered saline (TBS buffer, pH 7.4) to obtain a 0.22% RBC stock suspension. 5 μL of Compound A stock solution was added to 45 μL of RBC suspension and incubated with shaking for 1 hour at 37° C. At the conclusion of the incubation time, samples were centrifuged and 30 μL of the supernatant was added to 100 μL of water. OD414 measurements were read for hemoglobin concentration. […] EC50 values were determined as described above.

[3] = system: human erythrocytes (RBCs); experiment: Hemolysis assay using human erythrocytes; type: cell-based; conditions: vs S. aureus MIC
Protocol: as §3

[4] = Cytotoxicity colorimetric assay, NIH/3T3; type: cell-based, mouse; conditions: mouse, NIH/3T3 cells; one hour in serum-free media
Protocol: (§1) Cytotoxicity of Compound A was evaluated in a colorimetric assay using a transformed human liver cell line (HepG2, HB-8065) and an embryonic mouse cell line (NIH/3T3 cells, CRL-1658). This assay measures the bioreduction of a novel tetrazolium compound to a soluble formazan product by viable cells. HepG2 cells were seeded in 96 well plates at 2×10^4 cells/well in MEM medium with 10% fetal bovine serum (FBS) 24 hours prior to use. NIH/3T3 cells were seeded in 96 well plates at 2×10^4 cells/well in DMEM medium with 10% bovine calf serum (BCS) 24 hours prior to use. Cell monolayers were rinsed in serum-free media and incubated for one hour with Compound A in serum-free media. After incubation, the media was replaced with serum supplemented media and live cells were measured using the Cell Titer 96 Aqueous […] Assay kit (Promega, Madison, Wis.). EC50 values were determined using a four parameter logistic equation: Y=Bottom+(Top-Bottom)/(1+10^((LogEC50−X)*HillSlope)).

NIH/3T3 cells = experiment: Cytotoxicity colorimetric assay, NIH/3T3; type: cell-based, mouse; conditions: vs S. aureus MIC
Protocol: as §1

[5] = Cytotoxicity colorimetric assay, HepG2; type: cell-based, human; conditions: human, HepG2 cells; one hour in serum-free media
Protocol: (§4) This assay measures the bioreduction of a novel tetrazolium compound to a soluble formazan product by viable cells. HepG2 cells were seeded in 96 well plates at 2×10^4 cells/well in MEM medium with 10% fetal bovine serum (FBS) 24 hours prior to use. NIH/3T3 cells were seeded in 96 well plates at 2×10^4 cells/well in DMEM medium with 10% bovine calf serum (BCS) 24 hours prior to use. […] After incubation, the media was replaced with serum supplemented media and live cells were measured using the Cell Titer 96 Aqueous Non-Proliferation Assay kit (Promega, Madison, Wis.). EC50 values were determined using a four parameter logistic equation: Y=Bottom+(Top-Bottom)/(1+10^((LogEC50−X)*HillSlope)).

HepG2 = experiment: Cytotoxicity colorimetric assay, HepG2; type: cell-based, human; conditions: vs S. aureus MIC
Protocol: as §4

MRSA ATCC 33591 = experiment: Serial passage resistance, MRSA; type: cell-based, S. aureus; conditions: 0.5×MIC, 17 passages
Protocol: Frozen bacterial stocks (20 μL) of S. aureus ATCC29213 or methicillin-resistant S. aureus (MRSA ATCC 33591) were inoculated into 3 mL cation-adjusted Mueller-Hinton medium and incubated at 37° C. on a shaker platform (250 rpm) overnight. The suspension was diluted to approximately 5×10^5 cfu/mL and inoculated into a polypropylene (Costar) 96-well round bottom plate (90 μL volumes). Compound stock solutions of Compound A and norfloxacin (Sigma Aldrich, St. Louis, Mo.; Catalogue# N9890) were prepared in DMSO and serial two-fold dilutions of compound were made in 0.01% acetic acid, 0.2% bovine serum albumin directly in the wells of the polypropylene plate at 10 μL/well. Final concentrations of Compound A were 50, 25, 12.5, 6.25, 3.13, 1.56, 0.78, 0.39, 0.19, 0.098, 0.049, and 0.024 μg/mL. Final concentration ranges of norfloxacin were 100, 50, 25, 12.5, 6.25, 3.13, 1.56, 0.78, 0.39, 0.19, 0.098, and 0.049 μg/mL. […] All samples were performed in triplicate. Following a 24 hour incubation at 37° C., cell growth was assessed by observing the presence of “acceptable growth”, defined by CLSI as a ≧2 mm button or definite turbidity. The MIC wells were defined as the lowest concentration where acceptable growth was not observed. For serial passage, 50 μL aliquots were taken from 2 of 3 replicate wells at 0.5×MIC and combined into 900 μL of fresh cation-adjusted Mueller-Hinton medium. The OD600 was measured and the cell suspensions were inoculated into polypropylene 96-well round bottom plates (90 μL volumes) at approximately 5×10^5 cfu/mL. Ten μL of compound stock solutions were added previously to the wells to achieve the concentration ranges for each compound described above. All samples were performed in triplicate. The plates were incubated for 24 hours at 37° C. This process was repeated for a total of 17 passages and MIC values were recorded at each passage.

[6] = In vitro metabolic stability, blood plasma; type: in vitro ADME; conditions: 5 μM, 37° C.
Protocol: (§2) Pooled plasma samples from human (mixed gender), rat (mixed breed and gender) and dog (mixed breed and gender) were incubated with Compound A (5 μM) at 37° C. for 0 and 60 minutes (duplicate samples). Incubations were terminated by addition of ice-cold precipitation solvent (acetonitrile:glacial acetic acid, 9:1 v/v). Supernatants were diluted with equal volume of 0.1% formic acid and analyzed by HPLC-MS/MS. Plasma stability is reported as % parent compound at 60 minutes relative to amount of parent at 0 minutes.

[7] = In vitro metabolic stability, blood plasma (data not shown); type: in vitro ADME
Protocol: as §2

MSSA 29213 = experiment: Mouse thigh burden model against MSSA 29213; type: in vivo
MRSA 33591 = experiment: Mouse thigh burden model against MRSA 33591; type: in vivo
[8] = rat, in vivo, iv
Protocol: (§5) Maximum tolerated dose (MTD) determinations were made in ascending/descending dose studies in mice and rats. Compound A was administered by either i.v. bolus injection in the tail vein of mice and rats or by i.v. infusion via catheter in the femoral vein of rats. At each dose, two to three animals were administered compound and clinical signs were recorded over a 4 to 7 day period. Gross necropsy was performed at the conclusion of the study.

in vivo = conditions: rat, iv
Protocol: as §5

[9] = Stability in presence of plasma and isolated hepatocytes; conditions: multiple species

Compound: N=C(N)NCCCCC(=O)Nc1cc(C(F)(F)F)cc(NC(=O)c2cc(C(=O)Nc3cc(C(F)(F)F)cc(NC(=O)CCCCNC(=N)N)c3O[C@H]3CCNC3)ncn2)c1O[C@H]1CCNC1 [Compound A, pyrimidine-4,6-dicarboxylic acid bis-{[3-(5-guanidino-pentanoylamino)-2-((R)-pyrrolidin-3-yloxy)-5-trifluoromethyl-phenyl]-amide}tetrahydrochloride]
- MIC range ([1]; DAP-NS OXA-R, 5 isolates): 0.5-2
- MIC range ([1]; Drug-suscept., 59 isolates): 0.25-1
- MIC range ([1]; LZD-NS OXA-R, 5 isolates): 0.5-1
- MIC range ([1]; OXA-R, 69 isolates): 0.25-2
- MIC90 ([1]; Staphylococcus aureus, screen of 150 Staphylococci organisms): 0.5 to 2 µg/mL
- MIC range ([1]; VRSA/VISA DAP-NS OXA-R, 3 isolates): 0.5-1
- MIC range ([1]; VRSA/VISA OXA-R, 7 isolates): 0.5-1
- EC50 at 1 h [2]: > 500 µg/mL
- Selectivity (EC50/MIC) RBCs [3]: >500
- EC50 at 1 h [4]: 430 µg/mL
- Selectivity (EC50/MIC) 3T3 (NIH/3T3 cells): 430
- EC50 at 1 h [5]: 1030 µg/mL
- Selectivity (EC50/MIC) HepG2 (HepG2): 1,031
- change in MIC values on serial passage (MRSA ATCC 33591): did not result in any change; also recorded: no change
- Plasma Stability (%) ([6]; Dog (mixed breeds), 60 minutes): 100%
- Plasma Stability (%) ([6]; Human, parent at 60 minutes relative to 0 minutes): 96%
- Plasma Stability (%) ([6]; Rat (mixed breeds), 60 minutes): 102%
- loss of compound in plasma ([7]; cynomolgus monkeys): little to no loss
- loss of compound in plasma ([7]; rabbits): little to no loss
- efficacy in vivo (MSSA 29213): efficacious
- efficacy in vivo (MRSA 33591): efficacious
- MTD [8]: >24 mg/kg
- MTD (in vivo): > 24 mg/kg
- stability in the presence of plasma and isolated hepatocytes [9]: stable
